Measured values from patent US7145037B2, “Adamantane derivatives with neuroprotective, antidepressant and anti-ischaemic activities, and process for preparing them” (Rotta Research Laboraturium S.p.A., priority 2003, dated 2006).
Structures can show the parent of a compound that is named as a salt. Marks after values point to notes of the source that are not given here.

What was measured:
NO-synthetase (NOS) = NO-synthetase (NOS) (Oryctolagus cuniculus, UniProt G1SGE1); experiment: Inhibition of NO (nitrite) formation in rabbit articular chondrocytes stimulated with IL-1β; assay type: cell-based; conditions: for IC50: nitrite formation, IL-1β 1 ng/ml, 48 hours, 95% confidence limits in parentheses, read-out: Rabbit articular chondrocytes % inhibition (IC50 × 10^−6M)
Description: a) The inhibitory activity on the formation of NO, measured as NO2^− (nitrite), was studied in vitro on culture media of rabbit articular chondrocytes stimulated with the cytokine IL-1β (1 ng/ml) for 48 hours. For the preparation of the chondrocytes, the method described by Berenbaum et al. […] The cells were maintained under these conditions to the point of confluency (about 15 days), the medium being changed every 3 days. […] The stimulation lasted for 48 hours at 37° C. (incubation under air-7% CO2). Next, an assay of the nitrites was performed on the cell supernatant according to the method described by Green et al. [Anal. Biochem. 126, 131–138 (1982)].

mouse [1] = experiment: "Tail pinching" test in the mouse; assay type: in vivo; conditions: for Immobility time: 5 minutes; for % effect vs control: immobility time; for ED50: oral, calculated ED50, read-out: ED50 (reduction of immobility time)
Description: Process: The procedure is similar to that described by Steru et al. [Psychopharmacol. 85, p. 367-(1985)]. The animals are suspended by the tail 75 cm above the bench surface. The duration of immobility is measured over a period of 5 minutes: the animals are considered as being immobile only when they hang passively and completely motionless. The compounds were administered orally 30 minutes before the test.

[2] = tested on: rat parieto-occipital cortex slices; experiment: Release of [3H]D-aspartate evoked by 30 mM KCl under hypoglycaemic conditions in rat parieto-occipital slices; assay type: cell-based; conditions: read-out: IC50 for antagonizing the hypoglycaemia-induced increase in the release of [3H]D-aspartate
Description: This in vitro experimental model was designed to mimic a condition of […] and is a modification of the model reported by Zablocka B. and Domanska-Janik K., [NeuroReport 6, 85–88 (1994)].
Rat parieto-occipital cortex is removed and sectioned into 400 μm coronal slices. The cortical slices are incubated at 37° C. for 30 minutes with [^3H]D-aspartate and then, after washing for 45 minutes, stimulated for 5 minutes with a hypertonic potassium solution (30 mM). Once the basal conditions have been restored, the slices are perfused with a glucose-free medium for 20 minutes. The test compounds are at this point added to a standard medium containing glucose and perfused until the end of the experiment. 10 minutes from the end of the hypoglycaemic period, a further hypertonic potassium stimulation depolarizes the neuronal membrane, causing an approximately 75% increase in the release of [^3H]D-aspartate evoked under control conditions.

NMDA receptor [3] = experiment: Release of [3H]noradrenalin stimulated by NMDA in rat hippocampus slices; assay type: cell-based; conditions: aCSF lacking Mg2+, 100 μM NMDA, read-out: IC50 for antagonizing the effect of 100 μM NMDA on [3H]noradrenalin release
Description: The preparation of the slices is analogous to that described previously. The slices were perfused in the presence of [^3H] noradrenalin with an aCSF lacking in Mg^2+ ions. After perfusion for 45 minutes to equilibrate the system, 7 fractions of 5 minutes each were collected. The test compounds were added to the perfusion liquid 10 minutes before starting the collection of the fractions, while 100 μM NMDA was added only to fraction 4, from the fifteenth minute after the start of collection.
At the end of the experiment, the radioactivity present was counted as described previously. For each sample, the percentage ratio between the fractional release in fraction 4 in the presence of NMDA and the fractional release in the first collected fraction was determined. The activity of the test drugs was expressed as a mean percentage value of the number of experiments performed relative to the percentage increase in the release of [^3H] noradrenalin into the NMDA-stimulated control chambers in the absence of antagonists.

rat hippocampus slices = experiment: Basal release of [3H]noradrenalin from rat hippocampus slices in perfusion; assay type: cell-based
Description: (§1) The animals were sacrificed and the brains rapidly removed from the brain case and immediately transferred at 4° C. into artificial cerebrospinal fluid (aCSF) aerated with a gas mixture composed of 95% oxygen and 5% carbon dioxide. The brains were then sectioned at a temperature of 4° C. and the encephalic areas of interest (hippocampus and corpora striata) removed and immersed in the solution mentioned above.
(§2) Cerebral slices 400 μm thick were then prepared using a McIllwain “chopper”. The hippocampus slices were incubated with 0.08 μM of [^3H] noradrenalin and the striatum slices with 0.01 μM of [^3H] dopamine and/or with 0.09 μM of [^3H] choline at a temperature of 37° C. for 20 minutes. The slices labelled with [^3H] noradrenalin were incubated in the presence of 0.1 μM 6-nitroquipazine and 0.1 μM GBR 12909, which are selective inhibitors of the uptake of serotonin and dopamine, respectively, in order to prevent possible false labelling of serotoninergic and dopaminergic synaptic endings.
(§3) For the same reasons, the slices labelled with [^3H] dopamine were incubated in the presence of 0.1 μM 6-nitroquipazine and 0.1 μM nisoxetine, which are selective inhibitors of serotonin and noradrenalin uptake. […]
(§4) At the end of the experiment, the collected samples and the perfused slices (dissolved in toluene) were subjected to counting of the radioactivity present in each fraction and/or slice using a scintillator for liquid samples. The fractional release of tritiated neurotransmitters was calculated as the amount of radioactivity present in each fraction divided by the total radioactivity present in the slice at the moment at which it was collected. The ratios between the fractional release at a given moment of the perfusion and the fractional release in the first collected fraction were thus calculated for each slice. The effects of the compounds were expressed as a percentage of increase of the release of the neurotransmitters studied relative to the control slices perfused in the absence of drugs (Table 2).

rat striatum slices [4] = experiment: Basal release of [3H]acetylcholine from rat striatum slices in perfusion; assay type: cell-based; conditions: inactive = at the concentration in parentheses
Description: as §1, §2, §3, §4

rat striatum slices [5] = experiment: Basal release of [3H]dopamine from rat striatum slices in perfusion; assay type: cell-based; conditions: inactive = at the concentration in parentheses
Description: as §1, §2, §3, §4

NMDA receptor [6] = molecular target: T1, NMDA receptor; experiment: Binding of [3H]MK-801 to rat cortical synaptosomial membranes; conditions: H3-MK-801, 45 min at 23° C., read-out: IC50, concentration displacing 50% of the ligand (MK-801) from the receptor
T1 construct: IC50, concentration displacing 50% of the ligand (MK-801) from the receptor; other: rat cortical membranes, H3-MK-801

mouse [7] = experiment: Swimming test (Porsolt) in the mouse; assay type: in vivo
Description: Process: The procedure is similar to that described by Porsolt et al. (Arch. Int. Pharmacodyn. 229, p. 327–336 (1977).
Naïve (unconditioned) mice are subjected to forced swimming for 15 minutes in a glass cylinder containing 20 cm of water at a temperature of 25° C. The period of immobility from the third to the sixth minute (inclusive) and the time to reach total immobility from the sixth to the fifteenth minute were measured. Total immobility is defined as the latent time required in order for the animal to remain immobile for at least 30 seconds. The compounds were administered orally 60 minutes before the test.

[8] = 1 mg/kg orally 30 minutes before the test
[9] = 10 mg/kg orally 30 minutes before the test
[10] = 0.1 mg/kg orally 60 minutes before the test
[11] = 1 mg/kg orally 60 minutes before the test
[12] = 10 mg/kg orally 60 minutes before the test
[13] = 3 mg/kg orally 60 minutes before the test
[14] = 30 mg/kg orally 60 minutes before the test

Chain of NO-synthetase (NOS) (G1SGE1 entry or part of it): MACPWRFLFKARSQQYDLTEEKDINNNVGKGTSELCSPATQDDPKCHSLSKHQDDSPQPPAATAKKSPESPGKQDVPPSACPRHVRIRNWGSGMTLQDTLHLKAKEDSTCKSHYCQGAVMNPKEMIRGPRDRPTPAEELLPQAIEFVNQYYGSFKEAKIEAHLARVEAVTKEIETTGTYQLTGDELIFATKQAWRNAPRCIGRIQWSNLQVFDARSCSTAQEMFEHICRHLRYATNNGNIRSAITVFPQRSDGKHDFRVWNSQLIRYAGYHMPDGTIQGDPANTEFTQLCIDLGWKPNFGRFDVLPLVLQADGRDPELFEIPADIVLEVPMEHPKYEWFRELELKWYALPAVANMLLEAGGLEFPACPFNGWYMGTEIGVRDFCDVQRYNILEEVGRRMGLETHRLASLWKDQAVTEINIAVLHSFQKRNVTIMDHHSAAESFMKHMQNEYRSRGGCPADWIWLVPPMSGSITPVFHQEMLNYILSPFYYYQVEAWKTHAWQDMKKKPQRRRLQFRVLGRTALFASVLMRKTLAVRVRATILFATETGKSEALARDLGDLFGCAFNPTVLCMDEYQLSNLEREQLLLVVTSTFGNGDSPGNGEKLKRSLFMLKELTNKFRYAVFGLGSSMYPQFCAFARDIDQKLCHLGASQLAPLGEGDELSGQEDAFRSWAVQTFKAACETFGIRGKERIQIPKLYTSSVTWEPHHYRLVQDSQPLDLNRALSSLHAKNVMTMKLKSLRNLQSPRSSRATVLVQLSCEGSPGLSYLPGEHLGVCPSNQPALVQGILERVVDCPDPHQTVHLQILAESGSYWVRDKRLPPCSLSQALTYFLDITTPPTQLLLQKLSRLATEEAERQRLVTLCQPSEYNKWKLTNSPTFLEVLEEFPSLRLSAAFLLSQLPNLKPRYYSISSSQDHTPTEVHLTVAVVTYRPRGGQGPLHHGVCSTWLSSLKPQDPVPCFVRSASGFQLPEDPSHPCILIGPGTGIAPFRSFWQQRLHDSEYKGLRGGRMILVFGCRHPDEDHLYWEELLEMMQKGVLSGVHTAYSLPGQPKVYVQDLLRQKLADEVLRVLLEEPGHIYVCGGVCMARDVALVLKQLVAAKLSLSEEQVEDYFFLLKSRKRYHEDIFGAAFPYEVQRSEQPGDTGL

**Q.** Which melting point does the source give for `CC(=N)NCCC12CC3CC(CC(C3)C1)C2` (as salt: HCl) [Compound 1] here?
**A.** 243 °C

**Q.** For `CC12CC3CC(C)(C1)CC(CCNC(=N)C1CC1)(C3)C2` [Compound 7], which melting point is on record?
**A.** 96 °C

**Q.** Which IC50 (NO-synthetase (NOS)) does the source give for `COC(=O)[C@@H](N)CCCNC(=N)N[N+](=O)[O-]` [L-NAME] here?
**A.** 340 µM

**Q.** For `CC12CC3CC(C)(C1)CC(CCNC(=N)N[N+](=O)[O-])(C3)C2` [Compound 6, N-[2-(3,5-dimethyl-1-adamantyl)ethyl]-nitroguanidine], which IC50 (NO-synthetase (NOS)) is on record?
**A.** 80.4 µM

**Q.** Which results are given for `CC(=N)NCCC12CC3CC(C)(CC(C)(C3)C1)C2` [Compound 2, N-[2-(3,5-dimethyl-1-adamantyl)ethyl]-acetamidine]?
**A.** Immobility time (mouse [1]; 0.3 mg/kg orally 30 minutes before the test): 56.6 s; % effect vs control (mouse [1]; 0.3 mg/kg orally): 25.7%; Immobility time (mouse [1]; [8]): 48.0 s; % effect vs control (mouse [1]; 1 mg/kg orally): 37.0%; Immobility time (mouse [1]; 3 mg/kg orally 30 minutes before the test): 42.6 s; % effect vs control (mouse [1]; 3 mg/kg orally): 44.1%; Immobility time (mouse [1]; [9]): 35.1 s; % effect vs control (mouse [1]; 10 mg/kg orally): 53.9%; ED50 (mouse [1]): 6 mg/kg; IC50 [2]: 2.5 µM; IC50 (NMDA receptor [3]): 0.8 µM; Basal release of [3H]NE on hippocampus slices: concentration increasing basal release by 100% (rat hippocampus slices): 6 µM; Basal release of [3H]Ach on striatum slices: concentration increasing basal release by 100% (rat striatum slices [4]): inactive; Basal release of [3H]DA on striatum slices: concentration increasing basal release by 100% (rat striatum slices [5]): 2 µM; IC50 (NMDA receptor [6]): ~40 µM

**Q.** For `CC12CC3CC(C)(C1)CC(CCNC(=N)N)(C3)C2` [Compound 4, N-[2-(3,5-dimethyl-1-adamantyl)ethyl]guanidine], which “Immobility in sec. (3–6 mins)” value (mouse [7]; [10]) is on record?
**A.** 39.3* sec.

**Q.** What about the “Latent time vs immobility in sec. (6–15 mins)” value (“Latent time vs immobility” below) (mouse [7]; [10]) of the same compound?
**A.** 353.3 s

**Q.** And the “Immobility in sec. (3–6 mins)” value (mouse [7]; [11])?
**A.** 39.8* sec.

**Q.** What about the “Latent time vs immobility” value (mouse [7]; [11]) of the same compound?
**A.** 450.8* sec.

**Q.** What about the “Immobility in sec. (3–6 mins)” value (mouse [7]; [12]) of the same compound?
**A.** 42.4* sec.

**Q.** And the “Latent time vs immobility” value (mouse [7]; [12])?
**A.** 495.8* sec.

**Q.** What about the IC50 [2] of the same compound?
**A.** 0.8 µM

**Q.** What about the IC50 (NMDA receptor [3]) of the same compound?
**A.** 0.5 µM

**Q.** And the “Basal release of [3H]NE on hippocampus slices: concentration increasing basal release by 100%” value (rat hippocampus slices)?
**A.** 15 µM

**Q.** What about the “Basal release of [3H]Ach on striatum slices: concentration increasing basal release by 100%” value (rat striatum slices [4]) of the same compound?
**A.** 20 µM

**Q.** And the “Basal release of [3H]DA on striatum slices: concentration increasing basal release by 100%” value (rat striatum slices [5])?
**A.** 8 µM

**Q.** And the IC50 (NMDA receptor [6])?
**A.** ~40 µM

**Q.** With `N=C(N)NCCC12CC3CC(CC(C3)C1)C2` (as salt: HCl) [Compound 3] as the compound, how does the melting point read?
**A.** 246 °C

**Q.** Which results are given for `CN(C)CCC=C1c2ccccc2CCc2ccccc21` [Amitryptiline, reference compound]?
**A.** Immobility in sec. (3–6 mins) (mouse [7]; [13]): 54.9 s; Latent time vs immobility in sec. (6–15 mins) (mouse [7]; [13]): 477.5 s; Immobility in sec. (3–6 mins) (mouse [7]; [12]): 56.0 s; Latent time vs immobility in sec. (6–15 mins) (mouse [7]; [12]): 461.0 s; Immobility in sec. (3–6 mins) (mouse [7]; [14]): 42.0 s; Latent time vs immobility in sec. (6–15 mins) (mouse [7]; [14]): 607.8** sec.

**Q.** What does the source list for `CC12CC3CC(C)(C1)CC(N)(C3)C2` [Memantine, reference compound]?
**A.** Inhibition of the production of nitrite (NO-synthetase (NOS); up to the maximum concentration tested (3×10^−4M)): entirely inactive; Immobility time (mouse [1]; 0.1 mg/kg orally 30 minutes before the test): 49.9 s; % effect vs control (mouse [1]; 0.1 mg/kg orally): 36.8%; Immobility time (mouse [1]; [8]): 48.9 s; % effect vs control (mouse [1]; 1 mg/kg orally): 38.0%; Immobility time (mouse [1]; [9]): 40.1 s; % effect vs control (mouse [1]; 10 mg/kg orally): 49.2%; ED50 (mouse [1]): 24.9 mg/kg; IC50 [2]: 7.5 µM; IC50 (NMDA receptor [3]): 1.6 µM; Basal release of [3H]NE on hippocampus slices: concentration increasing basal release by 100% (rat hippocampus slices): 130 µM; Basal release of [3H]Ach on striatum slices: concentration increasing basal release by 100% (rat striatum slices [4]): inactive (100 μM); Basal release of [3H]DA on striatum slices: concentration increasing basal release by 100% (rat striatum slices [5]): inactive (30 μM); IC50 (NMDA receptor [6]): 80 µM

**Q.** Which melting point does the source give for `N=C(NCCC12CC3CC(CC(C3)C1)C2)N[N+](=O)[O-]` [Compound 5] here?
**A.** 260 °C
